In one test the target is T1, VEGF receptor KDR (Homo sapiens, UniProt P35968).
T1 construct: made in house; host or cells: Sf9 cells (Spodoptera frugiperda), baculovirus
The experiment in a line: In vitro receptor tyrosine kinase assay (DELFIA), VEGF receptor KDR. In kind it is biochemical. To be noted: GST-VEGFR2 806-1356, 0.6 uM ATP; read-out: VEGFR IC50. From the text:
In the case of VEGF receptor KDR a 1.6-kb cDNA corresponding to the catalytic domain of VEGFR2 or KDR (Genbank accession number AF035121 amino acid 806 to 1356) is cloned into the Pst I site of the pDEST20 Gateway vector (Invitrogen) for the production of a GST-tagged version of that enzyme.
The GST-VEGFR2806-1356 protein is expressed in Sf9 cells (Spodoptera frugiperda) upon infection with recombinant baculovirus construct.
The supernatant is loaded onto a GST-agarose column (Sigma) equilibrated with PBS pH 7.3. Following a four column volume (CV) wash with PBS pH 7.3+1% Triton X-100 and 4 CV wash with buffer B (50 mM Tris pH 8.0, 20% glycerol and 100 mM NaCl), bound proteins are step eluted with 5 CV of buffer B supplemented with 5 mM DTT and 15 mM glutathion. […] Final GST-VEGFR2806-1356 protein preparations concentrations are about 0.7 mg/ml with purity approximating 70%.

In another test the test system is A549 cells. Briefly: Wound healing assay in A549 cells (HGF-stimulated). In kind it is cell-based. To be noted: Homo sapiens, last dose that inhibited gap closing by more than 25%, 24 h, read-out: A549 WOUND_HEALING IC50. The protocol:
Wound healing assay in A549 cells. A549 cells (ATCC) are seeded in DMEM low glucose medium complemented with 10% FBS into 24-well plates at a density of 7.5×10^4 cells/well and grown to confluence (48 h). Inhibitors were added to the medium at a range of doses (0.00032-10 uM) for 3 h at which point a gap is introduced by scraping cells with a P1000 pipette tip. Cells are then stimulated to migrate by the addition of HGF (in the form of conditioned medium from 293T cells over-expressing the human HGF gene) and the culture is continued for 24 h. […] For the purpose of standardization, a control is carried on every assay plates.

In another test the target is T2, c-Met (Homo sapiens, UniProt P08581).
T2 construct: endogenous in cells; host or cells: MKN45 gastric carcinoma cells
The experiment in a line: Inhibition of c-Met phosphorylation in MKN45 cells (direct ELISA). In kind it is cell-based. To be noted: 3 h treatment, read-out: CMET ELISA IN MKN45 IC50. From the text:
The following assay is used to determine inhibition of c-Met phosphorylation.
The c-Met receptor is expressed in numerous cancer cell lines derived from tumors of epithelial origin. In MKN45 gastric carcinoma cells the c-Met gene is amplified, resulting in several-fold overexpression of the receptor and its constitutive activation. For this reason constitutively high levels of ERK1/2 are also detected in these cells, independently of HGF-added stimulation (Smolen G A, Sordella R, Muir B, Mohapatra G, Barmettler A, Archibald H, et al. Amplification of MET may identify a subset of cancers with extreme sensitivity to the selective tyrosine kinase inhibitor PHA-665752. Proc Natl Acad Sci USA 2006). We have developed a sensitive method to follow c-Met phosphorylation in these cells. In previous studies with earlier generation c-Met inhibitors, we established that the IC50s for the inhibition of c-Met phosphorylation were identical using this novel ELISA approach and standard western blot procedure, with antibodies directed against the activating autocatalysis tyrosine residues of c-MET (Tyr Y1230-34-35).
Cell treatments: MKN45 cells are seeded into wells of 96-well plates at a density of 3×10^4 cells/well in RPMI medium supplemented with 10% FBS. HA-TPR-RON expressing 293T (clone 18) cells are seeded into wells of 96-well plates at a density of 3×10^4 cells/well in DMEM medium supplemented with 10% FBS. Cells are grown for 48 h prior to treatments with compounds of interest. Inhibitors are added to the medium in triplicate wells at the indicated doses. After 3 h of treatment, media is aspirated and cells are lysed by one freeze-thaw cycle in 50 μL/well hypotonic lysis buffer (25 mM HEPES pH 7.5, 10 mM NaCl with 1 mM 4-(2-aminoethyl)benzenesulfonyl fluoride hydrochloride, 200 μM sodium orthovanadate, 1 mM sodium fluoride, 10 μg/mL of leupeptin, 10 μg/mL of aprotinin/mL, 1 μg/mL of pepstatin and 50 μg/mL Na-p-tosyl-L-lysine chloromethyl ketone hydrochloride.
Detection of phosphorylated c-Met by direct ELISA: Lysate samples (5 μL) from wells of treatment plates are transferred to 80 μL of binding buffer (25 mM HEPES pH 7.5, 200 mM NaCl) in wells of high binding white polysterene 96-well plates (Corning). After an overnight protein binding incubation at 4° C., lysates are aspirated and wells are blocked for 1 h at 37° C. in TBST supplemented with 5% BSA. Plates are incubated with the primary antibodies anti-phospho-Tyrosine (Millipore, 4G10) diluted 1/15000 in TBST supplemented with 5% BSA for 1 h at room temperature. Plates are washed 3 times on a plate washer (SkanWasher, Molecular Devises), and incubated with the reporter antibody […] (Sigma) diluted 1/15000 in TBST supplemented with 5% BSA, for 1 h at room temperature. Plates are washed 3 times with TBST using on a plate washer and subsequently incubated with chemiluminescent substrate solution (ECL, Roche). Luminescence signal is captured on a Polar Star Optima apparatus (BMG LabTech).
Average values of the triplicate samples are used to prepare IC50 curves using a 4-parameter fit model. These curves are calculated using, for example, GraFit 5.0 software. For assay standardization purpose, an internal control is included on each experimental test plate.
(In general: An ELISA detects its analyte on a solid surface through an enzyme-linked reagent.)

The next test has as its system DU145 cells. The experiment in a line: Scatter assay in DU145 cells (HGF-stimulated). In kind it is cell-based. To be noted: Homo sapiens, DU-145, last dose that created an inhibitory effect on scattering, 24 h, read-out: DU145 SCATT. INHIB IC50. As to the method: Scatter assays in DU145. The scatter assay is performed as described previously (Miura H, Nishimura K, Tsujimura A, Matsumiya K, Matsumoto K, Nakamura T, et al. Effects of hepatocyte growth factor on E-cadherin-mediated cell-cell adhesion in DU145 prostate cancer cells. Urology 2001; 58(6):1064-9) for DU145 prostate carcinoma cells with the indicated modifications. In brief, DU145 cells (ATCC) are seeded in 24-well plates at a density of 7×10^3 cells/well in MEM medium complemented with 10% FBS and cultured for 48 h, to allow the formation of small compact colonies of cells. Inhibitors are subsequently added at a range of doses (0.00032-10 uM) for 3 h. Cells are then stimulated to migrate by the addition of HGF (in the form of conditioned medium from 293T cells over-expressing the human HGF gene) and the culture is continued for another 24 h. The IC50 values is defined as the last dose that created an inhibitory effect on scattering. For the purpose of standardization a control is carried on every test plates for the DU145 scattering assays.

For test [1], the target named is recombinant human c-Met/HGF receptor (Homo sapiens, UniProt P08581). Briefly: In vitro receptor tyrosine kinase assay (DELFIA), c-Met/HGF receptor.

Structures are written as SMILES. Bounds are passed on as bounds.

The values below come from patent publication US8389541B2, “Inhibitors of protein tyrosine kinase activity” (MethylGene Inc., priority 2007, dated 2013).

T1 sequence (P35968 806-1356): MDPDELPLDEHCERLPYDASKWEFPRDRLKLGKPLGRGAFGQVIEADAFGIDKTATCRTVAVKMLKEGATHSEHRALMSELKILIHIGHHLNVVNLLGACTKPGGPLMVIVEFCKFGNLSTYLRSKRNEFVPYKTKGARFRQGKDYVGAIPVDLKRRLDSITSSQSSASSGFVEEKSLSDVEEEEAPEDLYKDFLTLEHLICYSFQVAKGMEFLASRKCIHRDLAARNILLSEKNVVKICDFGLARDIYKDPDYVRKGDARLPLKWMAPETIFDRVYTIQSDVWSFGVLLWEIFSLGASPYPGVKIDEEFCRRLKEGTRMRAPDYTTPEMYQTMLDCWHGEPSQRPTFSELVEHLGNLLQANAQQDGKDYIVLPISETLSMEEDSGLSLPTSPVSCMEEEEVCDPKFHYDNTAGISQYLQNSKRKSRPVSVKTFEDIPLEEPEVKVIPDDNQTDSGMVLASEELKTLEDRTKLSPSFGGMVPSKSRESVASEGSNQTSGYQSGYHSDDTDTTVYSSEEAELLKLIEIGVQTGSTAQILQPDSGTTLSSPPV
T2 sequence (P08581 25-1390): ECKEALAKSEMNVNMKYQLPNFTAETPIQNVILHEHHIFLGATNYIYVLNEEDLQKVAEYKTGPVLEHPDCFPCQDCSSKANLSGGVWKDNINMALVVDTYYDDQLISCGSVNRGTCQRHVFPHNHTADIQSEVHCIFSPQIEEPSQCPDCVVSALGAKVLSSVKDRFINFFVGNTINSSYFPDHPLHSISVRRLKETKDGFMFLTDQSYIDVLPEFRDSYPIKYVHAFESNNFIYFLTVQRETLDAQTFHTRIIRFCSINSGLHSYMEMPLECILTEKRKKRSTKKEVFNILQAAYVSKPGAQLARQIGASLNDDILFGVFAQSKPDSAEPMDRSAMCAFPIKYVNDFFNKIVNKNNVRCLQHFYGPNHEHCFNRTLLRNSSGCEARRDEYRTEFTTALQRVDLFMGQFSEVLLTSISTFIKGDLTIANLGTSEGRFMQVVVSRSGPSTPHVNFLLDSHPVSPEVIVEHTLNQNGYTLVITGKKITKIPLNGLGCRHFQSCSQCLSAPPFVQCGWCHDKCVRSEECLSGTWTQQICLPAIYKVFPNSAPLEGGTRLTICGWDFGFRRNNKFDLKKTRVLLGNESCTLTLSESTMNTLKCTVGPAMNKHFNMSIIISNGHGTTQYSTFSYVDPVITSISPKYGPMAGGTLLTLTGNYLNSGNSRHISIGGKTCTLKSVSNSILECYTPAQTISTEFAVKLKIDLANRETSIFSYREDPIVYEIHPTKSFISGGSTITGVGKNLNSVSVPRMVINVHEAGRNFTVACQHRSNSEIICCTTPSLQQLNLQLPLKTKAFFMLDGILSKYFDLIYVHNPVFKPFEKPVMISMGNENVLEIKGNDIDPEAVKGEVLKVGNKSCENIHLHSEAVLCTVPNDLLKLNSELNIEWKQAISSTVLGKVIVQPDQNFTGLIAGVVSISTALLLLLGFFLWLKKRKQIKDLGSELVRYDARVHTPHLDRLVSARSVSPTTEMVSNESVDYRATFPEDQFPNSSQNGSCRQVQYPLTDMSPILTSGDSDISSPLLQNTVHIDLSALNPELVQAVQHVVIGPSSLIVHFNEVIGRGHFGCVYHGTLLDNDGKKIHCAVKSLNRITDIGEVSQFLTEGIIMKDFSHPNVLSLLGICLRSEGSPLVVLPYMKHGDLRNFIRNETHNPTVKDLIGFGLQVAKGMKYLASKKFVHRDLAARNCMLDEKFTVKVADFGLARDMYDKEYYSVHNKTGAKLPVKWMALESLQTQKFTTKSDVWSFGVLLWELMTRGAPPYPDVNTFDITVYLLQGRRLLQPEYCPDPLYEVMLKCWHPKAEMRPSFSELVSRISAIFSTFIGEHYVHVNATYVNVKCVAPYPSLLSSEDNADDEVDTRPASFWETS
Sequence of recombinant human c-Met/HGF receptor (P08581 1078-1337): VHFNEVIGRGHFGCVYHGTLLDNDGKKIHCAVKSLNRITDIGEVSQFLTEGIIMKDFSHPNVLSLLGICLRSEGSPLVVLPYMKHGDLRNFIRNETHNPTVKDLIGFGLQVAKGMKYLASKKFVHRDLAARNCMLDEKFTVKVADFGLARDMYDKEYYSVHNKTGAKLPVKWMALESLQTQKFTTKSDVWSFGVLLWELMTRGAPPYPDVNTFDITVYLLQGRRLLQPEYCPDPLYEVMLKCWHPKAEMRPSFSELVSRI

Take `COCCNCc1cccc(-c2cc3nccc(Oc4ccc(NC(=O)NC(=O)Cc5ccc(F)cc5)cc4F)c3s2)c1`: the IC50 (in general, the midpoint of a concentration-inhibition curve) at VEGF receptor KDR was 250 to 500 nM; in the test with A549 cells, over 1000 nM; at c-Met, 250 to 500 nM; with DU145 cells it was 250 to 500 nM; in test [1], under 250 nM.
For the compound `COCCNCc1cccc(-c2cc3nccc(Oc4ccc(NC(=S)NC(=O)Cc5ccccc5OC)cc4F)c3s2)c1`, the IC50 at VEGF receptor KDR is under 250 nM; in the test on A549 cells, 250 to 500 nM; on c-Met, under 250 nM; in the test with DU145 cells, 250 to 500 nM; in test [1], under 250 nM.
Regarding `CS(=O)(=O)CCNCc1cccc(-c2cc3nccc(Oc4ccc(NC(=S)NC(=O)Cc5ccccc5)cc4F)c3s2)c1`, the half-inhibitory concentration (IC50) on VEGF receptor KDR was under 250 nM; in the test on A549 cells, over 1000 nM; at c-Met, under 250 nM; in the test with DU145 cells, over 1000 nM; in test [1] it was under 250 nM.
For the compound `COC[C@H](C)NCc1cccc(-c2cc3nccc(Oc4ccc(NC(=S)NC(=O)Cc5ccccc5)cc4F)c3s2)c1`, the IC50 at VEGF receptor KDR was under 250 nM; with A549 cells it was 250 to 500 nM; on c-Met, under 250 nM; in the test with DU145 cells, 250 to 500 nM; in test [1] it was under 250 nM.
As to `COC[C@H](C)NCc1ccc(-c2cc3nccc(Oc4ccc(NC(=S)NC(=O)Cc5ccccc5)cc4F)c3s2)cc1`, the IC50 was under 250 nM on VEGF receptor KDR; 250 to 500 nM with A549 cells; 250 to 500 nM at c-Met; 250 to 500 nM with DU145 cells; under 250 nM in test [1].
On to `CS(=O)(=O)CCNCc1cccc(-c2cc3nccc(Oc4ccc(NC(=S)NC(=O)Cc5ccc(F)cc5)cc4F)c3s2)c1`, for which the IC50 is under 250 nM at VEGF receptor KDR; over 1000 nM in the test with A549 cells; under 250 nM at c-Met; over 1000 nM in the test with DU145 cells; under 250 nM in test [1].
Consider `COC[C@H](C)NCc1ccc(-c2cc3nccc(Oc4ccc(NC(=S)NC(=O)Cc5ccc(F)cc5)cc4F)c3s2)cc1`, for which the IC50 is under 250 nM at VEGF receptor KDR; 250 to 500 nM in the test with A549 cells; under 250 nM on c-Met; 250 to 500 nM in the test on DU145 cells; under 250 nM in test [1].
Consider `COCCNCc1ccc(-c2cc3nccc(Oc4ccc(NC(=S)NC(=O)Cc5ccccc5F)cc4F)c3s2)cc1`, for which the IC50 is under 250 nM on VEGF receptor KDR; 250 to 500 nM in the test on A549 cells; under 250 nM on c-Met; 250 to 500 nM with DU145 cells; under 250 nM in test [1].
For the compound `CS(=O)(=O)CCNCc1ccc(-c2cc3nccc(Oc4ccc(NC(=S)NC(=O)Cc5ccc(F)cc5)cc4F)c3s2)cc1`, the IC50 at VEGF receptor KDR is under 250 nM; in the test with A549 cells, 250 to 500 nM; on c-Met, under 250 nM; in the test with DU145 cells it was 250 to 500 nM; in test [1] it was under 250 nM.
For `O=C(Nc1ccccc1)C1(C(=O)Nc2ccc(Oc3ccnc4cc(-c5ccc(CNCC(F)(F)F)cc5)sc34)c(F)c2)CC1`, the IC50 (on VEGF receptor KDR; in the test on A549 cells; at c-Met; in the test on DU145 cells; in test [1]) was under 250 nM each time.
`COCCNCc1ccc(-c2cc3nccc(Oc4ccc(NC(=S)NC(=O)Cc5ccccc5)cc4F)c3s2)nc1`: the IC50 (at VEGF receptor KDR; in the test on A549 cells; at c-Met; with DU145 cells; in test [1]) was under 250 nM each time.
For `COCCNCCc1ccc(-c2cc3nccc(Oc4ccc(NC(=O)CC(=O)Nc5ccccc5)cc4F)c3s2)cc1`, the IC50 at VEGF receptor KDR is under 250 nM; with A549 cells, 250 to 500 nM; at c-Met, 250 to 500 nM; in the test with DU145 cells, 250 to 500 nM; in test [1], under 250 nM.
For `COCCNCc1cnc(-c2cc3nccc(Oc4ccc(NC(=O)C5(C(=O)Nc6ccccc6)CC5)cc4F)c3s2)n1C`, the IC50 (at VEGF receptor KDR; in the test with A549 cells; at c-Met; with DU145 cells; in test [1]) was under 250 nM each time.
Turning to `COCCNCc1ccc(-c2cc3nccc(Oc4ccc(NC(=O)CC(=O)Nc5ccccc5)cc4F)c3s2)nc1`, the IC50 (at VEGF receptor KDR; in the test with A549 cells; on c-Met; in the test with DU145 cells; in test [1]) was under 250 nM throughout.
As for `COCCNCc1ccc(-c2cc3nccc(Oc4ccc(NC(=O)CC(=O)Nc5ccc(F)cc5)cc4F)c3s2)nc1`, the IC50 is under 250 nM on VEGF receptor KDR; under 250 nM in the test on A549 cells; under 250 nM on c-Met; 250 to 500 nM in the test with DU145 cells; under 250 nM in test [1].
In the case of `COCCNCc1cnc(-c2cc3nccc(Oc4ccc(NC(=O)Nc5cc(C)on5)cc4F)c3s2)n1C`, the IC50 at VEGF receptor KDR is under 250 nM.
As to `COCCNCc1cccc(-c2cc3nccc(Oc4ccc(NC(=O)Nc5cc(C(F)(F)F)ccc5F)cc4F)c3s2)n1`, the IC50 (on VEGF receptor KDR; in test [1]) was under 250 nM in each case.
For the compound `COCCN(Cc1cnc(-c2cc3nccc(Oc4ccc(NC(=O)NC5CC5)cc4F)c3s2)n1C)C(=O)OCc1ccccc1`, the IC50 in test [1] is over 1000 nM.
Regarding `COCCNCc1cccc(-c2cc3nccc(Oc4ccc(NC(=O)NC5CC5)cc4F)c3s2)n1`, the IC50 (on VEGF receptor KDR; in test [1]) was 250 to 500 nM in each case.
Turning to `COCCNCc1cnc(-c2cc3nccc(Oc4ccc(NC(=O)NC5CC5)cc4F)c3s2)n1C`, the IC50 on VEGF receptor KDR is under 250 nM; in test [1], 250 to 500 nM.
On to `COCCNCc1ccc(-c2cc3nccc(Oc4ccc(NC(=O)C5(C(=O)Nc6ccc(F)cc6)CC5)cc4F)c3s2)nc1` [drawing 354], for which the IC50 at VEGF receptor KDR, with A549 cells and with DU145 cells was under 250 nM throughout.
